Measured values reported in patent US6410591B1, “3,7 or 3 and 7 thia or oxa prostanoic acid derivatives as agents for lowering intraocular pressure” (Allergan Sales, Inc., priority 2001, dated 2002).

Experiments:
intraocular pressure [1] = experiment: Intraocular pressure in dogs, applanation pneumatonometry; format: in vivo; details: for reduced the intraocular pressure (IOP) by: 25 μl to the ocular surface, IOP at 6 hours
Protocol: The compounds were prepared at the said concentrations in a vehicle comprising 0.1% polysorbate 80 and 10 mM TRIS base. Dogs were treated by administering 25 μl to the ocular surface, the contralateral eye received vehicle as a control. Intraocular pressure was measured by applanation pneumatonometry. Dog intraocular pressure was measured immediately before drug administration and at 6 hours thereafter.

intraocular pressure [2] = experiment: Intraocular pressure in glaucomatous cynomolgus monkeys; format: in vivo, glaucomatous cynomonlgus monkey

SMILES: CCCCC[C@H](O)/C=C/[C@H]1[C@H](O)CC(=O)[C@@H]1SCCCSCC(=O)O [Compound 9, {3-[(1R,2S,3R)-3-Hydroxy-2-((S)-(E)-3-hydroxyoct-1-enyl)-5-oxocyclopentyl-sulfanyl]propylsulfanyl}acetic acid]
- reduced the intraocular pressure (IOP) by (intraocular pressure [1]; dose of 0.01% w/v): 45%
- reduced the intraocular pressure (IOP) by (intraocular pressure [1]; dose of 0.1% w/v): 50%
- ocular hypotensive effect (intraocular pressure [1]; topical ocular, 25 μl): pronounced ocular hypotensive effect

SMILES: CCCCC[C@H](O)/C=C/[C@H]1[C@H](O)CC(=O)[C@@H]1SCCCSCC(=O)OC(C)C [Compound 10, {3-[(1R,2S,3R)-3-Hydroxy-2-((S)-(E)-3-hydroxyoct-1-enyl)-5-oxocyclopentyl-sulfanyl]propylsulfanyl}acetic acid isopropyl ester]
- effect on IOP (intraocular pressure [2]; glaucomatous cynomonlgus monkey, dose of 0.01% w/v): reduced the IOP
- ocular hypotensive effect (intraocular pressure [2]; glaucomatous cynomonlgus monkeys): pronounced ocular hypotensive effect
